From patent US7790896B2, “RNA-selective probes for live cell imaging of nuclear structure and function” (New York University, priority 2006, dated 2010)

tested on: not listed separately; experiment: Fluorescence spectrum in TE buffer of dyes selected from live cell imaging; format: physicochemical; settings: dye 10 μM in TE buffer
Procedure: (§1) The fluorescence spectra data in the primary screening and selected dyes titration assay study was obtained by Gemini XS plate reader. RNA solution was prepared right before the assay experiments to avoid possible degradation and contamination. In the primary screening, 1 mg/mL RNA (type VI from torula yeast) buffer solution was used. Point scans were carried out first using five Ex/Em point sets ([…], 400/500, 450/550, 500/600, 550/650 nm). Spectra scans were then carried out for the selected dyes. Excitation wavelengths were set at 350 nm, 400 nm, 450 nm, 500 nm, and 550 nm and the emission wavelengths were scanned. RNA (16S- and 23S-ribosomal from E. coli) and DNA (salmon testes) titration experiments and quantum yield/extinction coefficient determination for the three best dyes were carried out by the plate reader as well. Excitation λmax obtained from F-2500 Hitachi Fluorophotometer was used. Absorbance wavelength was determined by SpectraMax Plus^384 absorbance plate reader. […] was chosen as standard and 480 nm was used as excitation wavelength in the scanning for quantum yield determination.

Structure (SMILES) | SPECTRUM EM [nm] | SPECTRUM EX [nm]
COc1ccc(-c2ccc(/C=C/c3cccc[n+]3C)o2)cc1Cl [Dye B139] | 570 | 450
C[n+]1ccc(C=Cc2cccc(F)c2F)c2ccccc21 [Dye D84] | 460 | 350
Cc1ccc2ccccc2c1/C=C/c1cc[n+](C)c2ccccc12 [Dye D143] | 530 | 400
COc1ccc(/C=C/c2ccc3ccccc3[n+]2C)cc1 [Dye E63] | 480 | 400
C[n+]1c(C=Cc2cc(C(C)(C)C)ccc2O)ccc2ccccc21 [Dye E73] | 550 | 450
C[n+]1c(/C=C/c2ccc(Br)s2)ccc2ccccc21 [Dye E77] | 470 | 350
COc1ccc(Oc2cccc(/C=C/c3ccc4ccccc4[n+]3C)c2)cc1 [Dye E83] | 450 | 350
C[n+]1c(/C=C/c2ccc(-c3cccs3)s2)ccc2ccccc21 [Dye E119] | 600 | 450
COc1ccc2c(ccc(C=Cc3cccc(Br)c3)[n+]2C)c1 [Dye F40] | 490 | 400
COc1ccc2c(ccc(/C=C/c3ccc(OC)c4ccccc34)[n+]2C)c1 [Dye F41] | 590 | 450
COc1ccc2c(ccc(C=Cc3ccc4c(c3)OCO4)[n+]2C)c1 [Dye F43] | 560 | 450
COc1ccc2c(ccc(/C=C/c3ccco3)[n+]2C)c1 [Dye F45] | 490 | 400
COc1ccc2c(ccc(C=Cc3ccccc3Br)[n+]2C)c1 [Dye F47] | 470 | 350
COc1ccc2c(ccc(/C=C/c3ccoc3)[n+]2C)c1 [Dye F48] | 480 | 400
COc1ccc2c(ccc(C=Cc3cc(C(C)(C)C)ccc3O)[n+]2C)c1 [Dye F73] | 490 | 400
COc1ccc2c(ccc(/C=C/C3CCCN3C)[n+]2C)c1 (centres unmarked) [Dye F74] | 550 | 450
COc1ccc2c(ccc(/C=C/c3ccc(Br)s3)[n+]2C)c1 [Dye F77] | 440 | 350
COc1ccc2c(ccc(/C=C/c3cccc(C(F)(F)F)c3)[n+]2C)c1 [Dye F82] | 490 | 400
COc1ccc(Oc2cccc(C=Cc3ccc4cc(OC)ccc4[n+]3C)c2)cc1 [Dye F83] | 460 | 350
COc1ccc2c(ccc(/C=C/c3c(C)cc(C)cc3C)[n+]2C)c1 [Dye F85] | 470 | 400
COc1ccc2c(ccc(/C=C/C=C/c3ccccc3OC)[n+]2C)c1 [Dye F97] | 460 | 350
CCCCCC(/C=C/c1ccc2cc(OC)ccc2[n+]1C)=C\c1ccccc1 [Dye F101] | 470 | 350
CCOc1cccc(C=Cc2ccc3cc(OC)ccc3[n+]2C)c1O [Dye F104] | 460 | 350
COc1ccc2c(ccc(/C=C/c3cc4c5c(c3O)CCCN5CCC4)[n+]2C)c1 [Dye F115] | 650 | 500
COc1ccc2c(ccc(/C=C/c3ccccc3OCC(=O)O)[n+]2C)c1 [Dye F116] | 520 | 400

tested on: RNA (Type VI from torula yeast); experiment: In vitro solution assay (primary screening): fluorescent emission fold change upon binding to RNA; settings: dye 10 μM, RNA 500 μg/mL in TE buffer
Procedure: as §1
The screening strategy used in this study is illustrated in FIG. 2. Both in vitro RNA assays and live cell imaging methods were utilized in the primary screening of the dye library. Selective binding of the dye to RNA in solution was the primary criterion for selecting lead compounds for subsequent bioimaging studies, Herein, the library dyes' fluorescent emission intensity fold change upon binding to RNA was measured in solution. Dyes showing five-fold or higher emission changes in the presence of RNA were selected (Table 3). Note the dyes listed are identified by the building blocks I and II from Table 2. For example, A4 is the product made by reacting compound A from the list of Building block I and compound 4 from the list of Building block II.

Structure (SMILES) | Em(nm) | Ex(nm) | Fold (fluorescent emission fold changes to RNA)
C[n+]1ccc(/C=C/c2c[nH]c3ccccc23)cc1 [Dye A4] | 540 | 450 | 11
COc1cc(OC)c(OC)cc1/C=C/c1cc[n+](C)cc1 [Dye A8] | 580 | 450 | 37
CN(CCC#N)c1ccc(/C=C/c2cc[n+](C)cc2)cc1 [Dye A9] | 600 | 500 | 21
CN(CCO)c1ccc(/C=C/c2cc[n+](C)cc2)cc1 [Dye A10] | 610 | 500 | 23
CN(C)c1ccc(C=Cc2cc[n+](C)cc2)cc1 [Dye A22] | 610 | 500 | 28
CN(C)c1ccc(C=Cc2cc[n+](C)cc2)c2ccccc12 [Dye A24] | 660 | 500 | 103
C[n+]1ccc(C=Cc2c(O)ccc3ccccc23)cc1 [Dye A42] | 560 | 450 | 10
Cn1c(/C=C/c2cc[n+](C)cc2)cc2ccccc21 [Dye A108] | 590 | 450 | 8
Cc1cc(C=Cc2cc[n+](C)cc2)c(C)n1-c1cccc(C(F)(F)F)c1 [Dye A121] | 540 | 450 | 28
CCN(CC)c1ccc(C=Cc2cc[n+](C)cc2)c(C#N)c1 [Dye A132] | 610 | 500 | 17
COc1cc(OC)c(C=Cc2cc[n+](C)cc2)c(OC)c1 [Dye A144] | 530 | 450 | 26
COc1cc(/C=C/c2cc[n+](C)cc2)c(OCc2ccccc2)cc1OC [Dye A156] | 580 | 450 | 42
CCN(CC)c1ccc(C=Cc2cccc[n+]2C)cc1 [Dye B92] | 600 | 500 | 28
CCN(CC)c1ccc(/C=C/c2cccc[n+]2C)c(C#N)c1 [Dye B132] | 590 | 500 | 28
COc1cc(/C=C/c2cccc[n+]2C)c(OCc2ccccc2)cc1OC [Dye B156] | 560 | 450 | 54
COc1cc(OC)c(OC)cc1C=Cc1cccc(C)[n+]1C [Dye C8] | 570 | 450 | 9

Structure (SMILES) | Em(nm) | Ex(nm) | Fold (fluorescent emission fold changes to RNA)
Cc1cccc(/C=C/c2ccc(N(C)CCC#N)cc2)[n+]1C [Dye C9] | 610 | 500 | 9
Cc1cccc(/C=C/c2ccc(N(C)C)cc2)[n+]1C [Dye C22] | 630 | 500 | 6
CCN(CC)c1ccc(/C=C/c2cccc(C)[n+]2C)cc1 [Dye C92] | 630 | 500 | 15
Cc1cccc(C=Cc2cc3ccccc3n2C)[n+]1C [Dye C108] | 580 | 450 | 8
CCn1c2ccccc2c2cc(C=Cc3cc[n+](C)c4ccccc34)ccc21 [Dye D107] | 620 | 500 | 13
Cn1c(/C=C/c2cc[n+](C)c3ccccc23)cc2ccccc21 [Dye D108] | 630 | 500 | 21
C[n+]1c(C=Cc2ccc3c(c2)OCO3)ccc2ccccc21 [Dye E43] | 560 | 450 | 10
Cn1c(C=Cc2ccc3ccccc3[n+]2C)cc2ccccc21 [Dye E108] | 620 | 500 | 21
C[n+]1c(C=Cc2cc(Br)c(Cl)c(Br)c2)ccc2ccccc21 [Dye E111] | 620 | 500 | 17
COc1ccc2c(ccc(/C=C/c3c[nH]c4ccccc34)[n+]2C)c1 [Dye F4] | 560 | 450 | 62
COc1ccc2c(ccc(C=Cc3cc(OC)c(OC)cc3OC)[n+]2C)c1.[I-] [Dye F8] | 610 | 500 | 52
COc1ccc2c(ccc(C=Cc3ccc(N(C)CCC#N)cc3)[n+]2C)c1 [Dye F9] | 620 | 500 | 86
COc1ccc2c(ccc(C=Cc3ccc(N(C)CCO)cc3)[n+]2C)c1 [Dye F10] | 630 | 500 | 38
CCN(CC)c1ccc(C=Cc2ccc3cc(OC)ccc3[n+]2C)cc1 [Dye F92] | 640 | 500 | 20
COc1ccc2c(ccc(/C=C/c3cc4ccccc4n3C)[n+]2C)c1 [Dye F108] | 610 | 500 | 27
CCN(CC)c1ccc(C=Cc2ccc3cc(OC)ccc3[n+]2C)c(C#N)c1 [Dye F132] | 640 | 500 | 14
